This note sets out measurements from patent US20180265915A1, “TRANSCRIPTION FACTOR DECOYS” (priority 2008, published 2018).

“Also recorded” adds a separate entry of the source.

Data set [1] relates to E. coli. Nature of the data set: FabB decoy growth assay with cerulenin in 96-well plate. It counts as cell-based, Escherichia coli. Particulars: Rich media supplemented with 1 μg/ml cerulenin. On the procedure: The decoy was prepared as described in Example 1.1 and used at various concentrations to transfect a well of a 96-well plate containing 200 μl of Rich media (10 g Tryptone, 5 g NaCl, 1 g Yeast extract per litre and supplemented with 0.2% glucose and 0.4% acetate, final concentrations) supplemented with 1 μg/ml cerulenin (Sigma). The plates were incubated at 37° C. with shaking and absorbance readings (at 595 nM) were taken using a plate reader. All data points were performed in triplicate.

Data set [2] relates to E. coli. Put plainly: FabB TFD growth assay with cerulenin in LB, polymixin co-transfectant. Type of data set: cell-based, Escherichia coli. On the procedure: For example, a FabB decoy which targets the regulation of genes essential for fatty acid synthesis may be tested against suitable strain, e.g. E. coli grown in e.g. Luria-Bertani LB media (1% [w/v] Bacto-tryptone, 0.5% [w/v] Yeast extract, 1% [w/v] NaCl) in the presence of an antibiotic which acts on the process of fatty acid synthesis, e.g. Cerulenin.
The effect of TFDs on the growth of E. coli bacterial cultures was measured as described in Example 4.1 with a few modifications: the media used was LB; the co-transfectant used was 40 nM polymixin, rather than gramicidin; the media was also supplemented with 10 μg/ml Cerulenin (CER). CER is an antibiotic that acts on fatty acid synthesis.

Data set [3] deals with S. aureus. Nature of the data set: Growth of S. aureus transfected by electroporation under conditions of stress. Particulars: BHI or LB media with 30 mM KOH, vs mock-electroporation or unrelated sequence. Type of data set: cell-based, Staphylococcus aureus. On the procedure: For example, stress response can be induced in a suitable strain e.g. S. aureus by growing in, e.g. LB media under conditions of stress, e.g. alkali conditions. For example LB media containing KOH, e.g. at 30 mM may be used. Untreated bacteria grow well in this media, due to the induction of the stress response by the alkali conditions, whereas those treated with the SA_sigB decoy, targeting the regulation of sigB which is a major part of the regulatory response to stress, grow poorly.
Decoy polynucleotides were transfected into S. aureus by electroporation. Bacterial cells were prepared by standard methods. Briefy, cells were grown to early exponential phase in LB media at 37° C. as defined as reaching an Absorbance of 0.3 at […]. The cells were chilled to 4° C. and harvested by low speed centrifugation and washed three times in a similar volume of sterile, ice-cold 10% (v/v) glycerol. Finally the cells were resuspended in a tenth of their original volume in 10% glycerol. […] 200 μl of cells were aliquoted into wells of a 96 well plate that was incubated at 37° C. with moderate shaking, growth was monitored by measuring absorbance.

Data set [4] relates to S. aureus. Nature of the data set: Growth studies in 96-well plates (DOTAP/Gramicidin transfection). Type of data set: cell-based, Staphylococcus aureus. As to conditions: 10 nM TFD, DOTAP, 60 nM Gramicidin. Here is the method: Cholesterol/Cy5-labeled decoy polynucleotides were prepared as in section 5.1. Typically 1 Lg of TFD was then complexed with 0.3 μl of the liposomal transfection reagent DOTAP (Roche) and incubated at room temperature for 10 min. The assays to determine their effect on growth of bacterial cells were performed using 96 well plates, each well containing 200 μl of broth consisting of BHI media (from Becton Dickinson), which is not iron-limited, supplemented with 60 nM Gramicidin (from Sigma Corporation. Cat# G5002) or iron-depleted media (NRPMI) similarly supplemented with Gramicidin. The method for iron-depletion is described in full elsewhere (Science (2004) 305:1626-1628). 1 μl of various concentrations of a Cholesterol/Cy5-labeled decoy complexed with TFD were added to each well and their effect on bacterial growth of S. aureus monitored by measuring absorbance of the broth at intervals during incubation. The plates were incubated at 37° C. with shaking and absorbance readings (at 450 nM) were taken using a plate reader. Several decoys were tested: Sig, fhu and SsaA.

Another data set deals with M. smegmatis. Put plainly: WhiB7 decoy antibiotic sensitisation, growth in shake flasks. Type of data set: cell-based, Mycobacterium smegmatis. As to conditions: 100 nM TFD; sub-inhibitory isoniazid (IZ) or rifampicin (RF); 9H11 + 10% ODAC, 37° C. Here is the method: A decoy polynucleotide containing the WhiB7 decoy sequence was prepared as described in Example 1.1 and various concentrations were used to transfect M. smegmatis grown in 20 ml of broth (in 200 ml shake flasks containing a wire baffle). The media used was 9H11 (Becton Dickinson) supplemented with 10% ODAC (Becton Dickinson) and sub-inhibitory concentrations of the antibiotics isoniazid (IZ) or rifampicin (RF). The flasks were incubated at 37° C. with shaking and at various intervals samples were withdrawn and their absorbance measured (to monitor cell growth). Flasks were either treated with 100 nM of the WhiB7 TFD (+) or treated with the negative control TFD (−).

With “FabB TFD: decoy containing the binding site for the FadR regulator, SEQ ID NO: 6 (DNA TTTATTCCGAACTGATCGGACTTGTTCAGCGTACACGTGTTAGCTATCCTGCGTGCTTCA; transcription factor decoy, method of preparation not given here for this one, further chemistry not given here)”, the “growth of E. coli in broth (absorbance at 595 nM)” value with E. coli [1] was “caused the cells to hardly grow at all”. The “sensitivity of E. coli to the action of cerulenin” value in the data set on E. coli [2] (10 nM TFD, LB, 40 nM polymixin, 10 μg/ml Cerulenin) was “sensitises the bacteria to antibiotics (cerulenin); also recorded: rendered the bacteria sensitive to the action of cerulenin”. Moreover, the “effect on cells at 20 ug/ml cerulenin” value with E. coli [2] (FabB TFD plus cerulenin) is listed as “the cells are being killed by the synergenistic action”. Further, the “growth of E. coli treated with the decoy versus untreated” value in the data set with E. coli [2] (LB media, Cerulenin 10 μg/ml) is “grow markedly more slowly and to lower final density”.

On to “SsaA TFD: contains the binding site for the two-component regulator WalR, SEQ ID NO: 8 (DNA ATTACAAATTTGTAACAGACTTATTTTA; transcription factor decoy, made by PCR or oligonucleotide ligation, further chemistry not given here; listed as Staphylococcus aureus)”, for which the “growth of S. aureus under conditions of stress” value in the data set on S. aureus [3] was “capable of slowing the growth”. The “effect on bacterial growth in BHI medium (non-iron limiting)” value in the data set on S. aureus [4] is reported as “measurable delay in bacterial growth”. In addition, in the data set on S. aureus [4] (NRPMI), the “effect on bacterial growth in iron-limited media” value is given as “no effect on bacterial growth”.

“WhiB7 TFD: decoy with WhiB7 binding site, SEQ ID NO: 5, prepared by PCR with cholesterol/Cy5 primers (DNA TGGCCACGGATCCGGGTGACTGCGGGTCCGTGGCCT; PCR-made decoy including vector flanks, 5' cholesterol and Cy5 primer ends, further chemistry not given here)”: the “sensitivity of cells to the antibiotics tested (growth by absorbance)” value with M. smegmatis is reported as “rendered sensitive to both the antibiotics tested”.
